pEC50, pIC50: −log10 of the molar value. Read-outs that look alike come from different tables or passages of the source.
Key:
[1] = system: human peripheral blood lymphocytes; assay: Lipopolysaccharide-stimulated TNFα release from human peripheral blood lymphocytes; assay type: cell-based
Procedure: The compounds of structural formula (II) also were tested for an ability to reduce TNFα secretion in human peripheral blood lymphocytes. The ability to reduce TNFα secretion is related to the EC50 values (i.e., the effective concentration of the compound capable of inhibiting 50% of the total TNFα).
To assess the ability of a compound to reduce TNFα secretion in human peripheral blood lymphocytes (PBL), the following tests were performed.
Heparinized blood (approximately 30 mL) drawn from human volunteers was mixed 1:1 with Dulbecco's modified phosphate-buffered saline. This mixture was mixed 1:1 with HISTOPAQUE® and centrifuged at 1,500 rpm at room temperature without braking in the swinging bucket of a Beckman model TJ6 centrifuge. Erythrocytes were centrifuged to the bottom of the tubes, and serum remained at the surface of the tubes. A layer containing lymphocytes sedimented between the serum and HISTOPAQUE® layers, and was removed by aspiration to a fresh tube. The cells were quantified and adjusted to 3×10^6 cells/mL and a 100 μL aliquot is placed into the wells of a 96 well plate. Test compounds and RPMI media (Gibco/BRL Life Sciences) are added to each of the wells 15 minutes prior to addition of bacterial LPS ([…]). The mixture was allowed to incubate for 20 hours at 37° C. in a humidified chamber. The cells then were separated by centrifuging at 800 rpm for 5 minutes at room temperature. An aliquot of 180 μL of supernatant was transferred to a new plate for determination of TNFα concentration. TNFα protein in the cell supernatant fluids was measured using a commercially available enzyme-linked immunosorbent assay (ELISA) (CYTOSCREEN® Immunoassay Kit from Biosource International).
The cell-based assay provided the following results for various pyrrolidine compounds of the present invention. The EC50 values (i.e., effective concentration of the compound capable of inhibiting 50% of the total TNFα) illustrate the ability of the present compounds to inhibit LPS-stimulated TNFα release from human PBL.

human recombinant PDE4B = molecular target: T1, human recombinant PDE4B (Homo sapiens, UniProt Q07343); assay: Inhibition of human recombinant PDE4B; assay type: biochemical; conditions: read-out: PDE4B IC50
T1 construct: made in house; host or cells: Saccharomyces cerevisiae strain YI23 harboring HDUN2.32
T1 sequence (Q07343 whole entry): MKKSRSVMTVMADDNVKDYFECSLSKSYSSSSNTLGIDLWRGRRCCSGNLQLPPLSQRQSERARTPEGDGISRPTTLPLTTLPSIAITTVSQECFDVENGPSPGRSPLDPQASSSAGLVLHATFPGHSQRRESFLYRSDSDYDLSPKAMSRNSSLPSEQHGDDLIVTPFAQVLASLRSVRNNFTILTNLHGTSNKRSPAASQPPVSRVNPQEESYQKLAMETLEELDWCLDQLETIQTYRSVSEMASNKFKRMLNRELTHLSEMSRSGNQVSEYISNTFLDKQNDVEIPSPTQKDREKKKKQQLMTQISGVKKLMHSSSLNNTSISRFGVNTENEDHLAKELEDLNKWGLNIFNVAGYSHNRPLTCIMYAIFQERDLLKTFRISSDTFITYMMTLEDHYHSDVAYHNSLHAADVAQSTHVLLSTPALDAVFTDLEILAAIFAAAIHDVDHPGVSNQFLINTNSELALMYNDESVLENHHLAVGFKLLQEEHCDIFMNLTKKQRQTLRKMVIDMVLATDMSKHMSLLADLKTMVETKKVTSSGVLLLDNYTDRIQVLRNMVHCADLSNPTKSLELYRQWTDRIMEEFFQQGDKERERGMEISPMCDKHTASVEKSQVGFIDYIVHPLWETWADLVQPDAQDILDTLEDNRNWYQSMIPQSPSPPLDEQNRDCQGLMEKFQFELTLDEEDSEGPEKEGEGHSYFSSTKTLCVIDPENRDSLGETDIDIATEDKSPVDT

mouse = assay: Subjective assessment of mouse immobility (CNS side effects); assay type: in vivo; conditions: for CNS Side Effects: subjective assessment of mouse immobility, 60 minutes
recombinant human PDE4 = assay: Inhibition of recombinant human PDE4 (cAMP hydrolysis); conditions: read-out: PDE4 IC50
Procedure: The compounds of structural formula (II) were tested for an ability to inhibit PDE4. […] The IC, value for compounds of structural formula (II) were determined using recombinant human PDE4.
Phosphodiesterase activity of the preparations was determined as follows. […] In this assay, PDE activity converts [32P]cAMP or [32P]cGMP to the corresponding [32P]5′-AMP or [32P]5′-GMP in proportion to the amount of PDE activity present. The [32P]5′-AMP or [32P]5′-GMP then was quantitatively converted to free [32P]phosphate and unlabeled adenosine or guanosine by the action of snake venom 5′-nucleotidase. […] The assay was performed at 30° C. in a 100 μL reaction mixture containing (final concentrations) 40 mM Tris HCl (pH 8.0), 1 μM ZnSO4, 5 mM MgCl2, and 0.1 mg/mL bovine serum albumin (BSA). […] PDE enzyme was present in quantities that yield<30% total hydrolysis of substrate (linear assay conditions). The assay was initiated by addition of substrate (1 mM [32P]cAMP or cGMP), and the mixture was incubated for 12 minutes. Seventy-five (75) μg of Crotalus atrox venom then was added, and the incubation was continued for 3 minutes (15 minutes total). The reaction was stopped by addition of 200 μL of activated charcoal (25 mg/mL suspension in 0.1 M NaH2PO4, pH 4). After centrifugation (750×g for 3 minutes) to sediment the charcoal, a sample of the supernatant was taken for radioactivity determination in a scintillation counter and the PDE activity was calculated.

[2] = Mouse locomotor activity assay (decrease in spontaneous mobility); conditions: female, Balb/c, in vivo
Procedure: The purpose of this study was to determine the efficacy of PDE4 inhibitors in vivo in an LPS mouse model together with a determination with respect to central nervous system (CNS) side-effects manifested by a decrease in spontaneous mobility.
The test animals were female Balb/c mice, having an average weight of about 20 g. The PDE4 inhibitors, formulated in 30% Cremophor® EL, were administered via intraperitoneal (i.p.) injections at doses of 0.1, 1.0, 10.0, and 100 mg/kg. Individual dose volumes (about 150 μL) were adjusted based on the body weights measured. One hour later, 5 mg/kg LPS in a final volume of 200 μL was injected via the tail vein to each animal. Ninety minutes following the LPS treatment, the animals were bled and serum samples were collected before being stored at −70° C. until assayed.
Movement of the X-Y plane, or rearing up on the hind legs, was quantified by counting the number of “light-beam” crosses per unit of time. A decrease in the number of activity events is directly proportional to the mobility or immobilization of the animal. The quantitative scoring correlated well with the subjective measurements described above.

ferret = assay: Emetic modeling in the ferret following oral and intravenous dosing; assay type: in vivo, Mustela putorius furo
Procedure: This study was conducted to investigate the emetogenic properties of PDE4 inhibitors in vivo. The ferret previously has been established as a valuable tool for assessing emesis following exposure to test compounds. […] Therefore, lack of and/or decrease in emetic potential of test compounds in ferrets predicts a favorable nonemetic effect in humans. Emesis is a complex physiological response to noxious agents that can be intiated peripherally or centrally.
The test animals were adult, castrated, and descented male ferrets (species=Mustela putorius furo, Strain=Sable) ranging in weight from about 1 to 1.5 kg. The tests were performed in quadruplicate on animals that were naive to PDE4 inhibitors. The PDE4 inhibitors were formulated in 10% Polyoxyl-35 castor oil (CREMOPHOR® EL, available from BASF Corporation, Parsippany, N.J.) in phosphate buffered saline (PBS), and were administered via i.v. injections into an indwelling catheter surgically positioned in the right external jugular vein at a rate of 0.66 mL per kg body weight. PDE4 inhibitors for oral consumption were formulated in 30% CREMOPHOR® EL in PBS, and administered by intubating animals with a 16-gauge feeding needle into the stomach. The animals received the PDE4 inhibitors in a volume of 1.33 mL per kg body weight.
All animals were fasted for 8 to 12 hours prior to administration of PDE4 inhibitors. Following administration of a PDE4 inhibitor, emetic and behavioral responses were quantified for three hours post dosing. The total number of emetic responses and vomiting episodes were quantified during the observation interval. In addition, latency time to first emetic episode, duration of emesis episodes, and gross behavioral changes including ataxia, profuse and viscous salivation, mouth clawing, hyperventilation, backward walking, flattened body posture, hyperactivity, lip licking, and general appearance were recorded.
For comparative purposes, the emetogenic effect of Samples 66 and 69 were tested intravenously at 1.0, 2.5, 5.0, and 10 mg/kg and orally at 2.5, 10, 17, and 25 mg/kg.

[3] = system: serum TNFα levels in LPS-injected mice; assay: Inhibition of serum TNFα levels in LPS-injected mice (Mouse/TNFα ED50); assay type: in vivo; conditions: for ED50: Mus musculus
Procedure: In order to assess the ability of a compound to reduce serum TNFα levels in mammals, the following protocol was employed. […] Accordingly, in vivo efficacy of a PDE4 reducing compound was shown by dosing with compound and measuring reduction of serum TNFα levels in LPS-injected mice. Female C3H mice, 20-25 gm body weight, were fasted overnight and dosed intraperitoneally with test compound in appropriate vehicle 60 minutes before LPS injection. Five μg of LPS was then injected intraperitoneally into the mice. Ninety minutes after LPS injection, mice were bled from the heart. Blood was allowed to clot overnight at 4° C. Samples were centrifuged for 10 minutes in a microcentrifuge and the serum removed and stored at −20° C. until analysis. Serum levels of TNFα were subsequently measured using a commercially available ELISA kit (Genzyme) following the protocol enclosed in the kit. The percent of inhibition of serum TNFα levels caused by the compound was determined relative to serum TNFα levels in control mice receiving vehicle alone. […]

[4] = Homo sapiens, Lymphocyte, read-out: Cell based EC50
[5] = Homo sapiens, Lymphocyte, LPS-stimulated TNFα release from human PBL, read-out: PBL/TNFα EC50
[6] = ip, read-out: ED50, effective dose that decreases spontaneous mobility 50% of control
[7] = stereoisomer comparison table, read-out: Mouse/TNFα ED50
[8] = intraperitoneal, read-out: Mouse Inhibition of Spontaneous Mobility ED50
[9] = read-out: Mouse LPS Challenge ED50
[10] = LPS-stimulated TNFα release from human PBL, read-out: PBL/TNFα EC50

COc1ccc([C@@H]2CN(C(=O)[C@H](N)CO)C[C@@]2(C)[C@@H](C)O)cc1OCC1CC1.Cl [Example 109, hydrochloride]
pEC50 [1, 4]: 7.52
pIC50 (human recombinant PDE4B): 7.70

COC(=O)N1CC(c2ccc(OC)c(OC3CCCC3)c2)[C@](C)([C@H](C)O)C1 (some centres unmarked) [(D)]
CNS Side Effects (mouse; i.p. 1, 10 and 100 mg/kg): No effect
pIC50 (recombinant human PDE4; stereoisomer comparison table): 6.29

COc1ccc([C@@H]2CN(C(=O)[C@H](C)O)C[C@@]2(C)[C@@H](C)O)cc1OC1CCCC1 [Example 67, 1-[3-((1R)-1-Hydroxyethyl)(3S,4S)-4-(3-cyclopentyloxy-4-methoxyphenyl)-3-methylpyrrolidinyl](2S)-2-hydroxypropan-1-one]
pEC50 [1, 5]: 6.22
ED50 [2, 6]: > 50 mg/kg

COC(=O)N1C[C@H](c2ccc(OC)c(OC3CCCC3)c2)[C@@](C)([C@H](C)O)C1 [(A)]
Number of Emetic Events: Retches (ferret; intravenous 1.0 mg/kg): 0
Number of Emetic Events: Total (ferret; intravenous 1.0 mg/kg): 0
Number of Emetic Events: Vomits (ferret; intravenous 1.0 mg/kg): 0
Responders (ferret; intravenous 1.0 mg/kg): 0/4
Number of Emetic Events: Retches (ferret; intravenous 2.5 mg/kg): 3
Number of Emetic Events: Total (ferret; intravenous 2.5 mg/kg): 3
Number of Emetic Events: Vomits (ferret; intravenous 2.5 mg/kg): 0
Responders (ferret; intravenous 2.5 mg/kg): 1/4
Number of Emetic Events: Retches (ferret; intravenous 5.0 mg/kg): 300
Number of Emetic Events: Total (ferret; intravenous 5.0 mg/kg): 300
Number of Emetic Events: Vomits (ferret; intravenous 5.0 mg/kg): 0
Responders (ferret; intravenous 5.0 mg/kg): 2/2
outcome after intravenous dosing (ferret; intravenous 5 mg/kg body weight): one of the tested animals died almost immediately after dosing
Number of Emetic Events: Retches (ferret; oral 2.5 mg/kg): 0
Number of Emetic Events: Total (ferret; oral 2.5 mg/kg): 0
Number of Emetic Events: Vomits (ferret; oral 2.5 mg/kg): 0
Responders (ferret; oral 2.5 mg/kg): 0/4
Number of Emetic Events: Retches (ferret; oral 10.0 mg/kg): 27
Number of Emetic Events: Total (ferret; oral 10.0 mg/kg): 32
Number of Emetic Events: Vomits (ferret; oral 10.0 mg/kg): 5
Responders (ferret; oral 10.0 mg/kg): 3/4
Number of Emetic Events: Retches (ferret; oral 17.0 mg/kg): 51
Number of Emetic Events: Total (ferret; oral 17.0 mg/kg): 58
Number of Emetic Events: Vomits (ferret; oral 17.0 mg/kg): 7
Responders (ferret; oral 17.0 mg/kg): 3/4
Number of Emetic Events: Retches (ferret; oral 25.0 mg/kg): 88
Number of Emetic Events: Total (ferret; oral 25.0 mg/kg): 114
Number of Emetic Events: Vomits (ferret; oral 25.0 mg/kg): 26
Responders (ferret; oral 25.0 mg/kg): 4/4
emetic response, comparison of compounds (ferret; oral or intravenous): much stronger emetic response than compound (C)
pEC50 [1, 5]: 7.24
ED50 [3, 7]: 7 mg/kg
mouse mobility assessment (footnote statement) (mouse; i.p. 1, 10 and 100 mg/kg, 60 minutes time frame): mice were affected at all doses
outcome at the highest dose (mouse; mouse, i.p., highest dose (100 mg/kg)): mice became moribund and died within 10 minutes of treatment
CNS Side Effects (mouse; i.p. 1, 10 and 100 mg/kg): Severe
pIC50 (recombinant human PDE4; human recombinant PDE4): 7.88
pIC50 (recombinant human PDE4; stereoisomer comparison table): 7.88

COc1ccc([C@@H]2CN(c3ccccn3)C[C@@]2(C)[C@@H](C)O)cc1OC1Cc2ccccc2C1 [Example 31, (1R)-1-[(3S,4S)-4-(3-Indan-2-yloxy-4-methoxyphenyl)-3-methyl-1-(2-pyridyl)pyrrolidin-3-yl]ethan-1-ol]
pEC50 [1, 5]: 7.46
ED50 [2, 6]: 83 mg/kg
ED50 ([3]; mouse, i.p., LPS challenge, read-out: Mouse/TNFα ED50): 3 mg/kg

CCCC(O)C(=O)N1C[C@@H](c2ccc(OC)c(OCC3CC3)c2)[C@](C)([C@@H](C)O)C1 (stereo partly drawn) [Example 101, 1-{(3S,4S)-3-((1R)-1-Hydroxyethyl)-4-[3-(cyclopropylmethoxy)-4-methoxyphenyl]-3-methylpyrrolidinyl)-2-hydroxypentan-1-one]
pEC50 [1, 4]: 7.52
pIC50 (human recombinant PDE4B): 7.96
ED50 [2, 8]: 100 mg/kg
ED50 [3, 9]: 3 mg/kg

COC(=O)N1C[C@@H](c2ccc(OC)c(OC3Cc4ccccc4C3)c2)[C@](C)(C(C)O)C1 (some centres unmarked) [Sample No. 62]
pEC50 [1, 10]: 7.99
Mouse/TNFα ED50 ([3]; stereoisomer comparison table): 0.08 mg/kg
CNS Side Effects (mouse; i.p. 1, 10 and 100 mg/kg): Little to no effect (at 50 mg/kg)
pIC50 (recombinant human PDE4; human recombinant PDE4): 8.17
pIC50 (recombinant human PDE4; stereoisomer comparison table): 8.17

COc1ccc([C@@H]2CN(C(=O)[C@H](N)CO)C[C@@]2(C)[C@@H](C)O)cc1OCC1CC1.Cl [Example 109]
ED50 [2, 8]: 100 mg/kg
ED50 [3, 9]: 5 mg/kg

COC(=O)N1CC(c2ccc(OC)c(OC3CCCC3)c2)[C@@](C)([C@@H](C)O)C1 (some centres unmarked) [(B)]
ED50 [3, 7]: 12 mg/kg
CNS Side Effects (mouse; i.p. 1, 10 and 100 mg/kg): No effect
pIC50 (recombinant human PDE4; stereoisomer comparison table): 7.21

COC(=O)N1C[C@@H](c2ccc(OC)c(OC3Cc4ccccc4C3)c2)[C@](C)(C(C)O)C1 (some centres unmarked) [Sample No. 61]
pEC50 [1, 10]: 7.24
Mouse/TNFα ED50 ([3]; stereoisomer comparison table): 0.2 mg/kg
CNS Side Effects (mouse; i.p. 1, 10 and 100 mg/kg): Little to no effect (at 50 mg/kg)
pIC50 (recombinant human PDE4; human recombinant PDE4): 7.74
pIC50 (recombinant human PDE4; stereoisomer comparison table): 7.74

COc1ccc([C@@H]2CN(C(=O)COCc3ccccc3)C[C@@]2(C)[C@@H](C)O)cc1OC1CCCC1 [Example 64, 1-[3-((1R)-1-Hydroxyethyl)(3S,4S)-4-(3-cyclopentyloxy-4-methoxyphenyl)-3-methylpyrrolidinyl]-2-(phenylmethoxy)ethan-1-one]
pEC50 [1, 5]: 7.44

CCCC[C@H](N)C(=O)N1C[C@@H](c2ccc(OC)c(OC3CCCC3)c2)[C@](C)([C@@H](C)O)C1 [Example 93, 1-[3-((1R)-1-Hydroxyethyl)(3S,4S)-4-(3-cyclopentyloxy-4-methoxyphenyl)-3-methylpyrrolidinyl](2S)-2-aminohexan-1-one]
pEC50 [1, 5]: 8.11

COc1ccc([C@@H]2CN(C(=O)C(N)=O)C[C@@]2(C)[C@@H](C)O)cc1OCC#Cc1ccccc1 [Example 75, 2-{(3S,4S)-3-((R)-1-Hydroxyethyl)-4-[4-methoxy-3-(3-phenylprop-2-ynyloxy)-phenyl]-3-methylpyrrolidin-1-yl}-2-oxo-acetamide]
pEC50 [1, 5]: 6.92

Reference: patent US20040023945A1, “CYCLIC AMP-SPECIFIC PHOSPHODIESTERASE INHIBITORS” (ICOS Corporation, priority 1999, published 2004)
